From the NIST ThermoML archive (doi:10.1021/je800188a)

Assay: mean ionic activity coefficient (dimensionless); mn = molality of the nth substance listed, in mol/kg
Details: 298.15 K, 101 kPa, Liquid

[Cl-].[K+] [potassium chloride] + O
Details	mean ionic activity coefficient
m1 = 0.2	0.719
m1 = 0.4	0.669
m1 = 0.6	0.641
m1 = 0.8	0.623
m1 = 1	0.61
m1 = 1.2	0.601
m1 = 1.4	0.593
m1 = 1.6	0.588
m1 = 1.8	0.584
m1 = 2	0.58
m1 = 2.2	0.578
m1 = 2.4	0.576
m1 = 2.6	0.575
m1 = 2.8	0.575
m1 = 3	0.575
m1 = 3.2	0.576
m1 = 3.4	0.576
m1 = 3.6	0.578
m1 = 3.8	0.58
m1 = 4	0.582
m1 = 4.2	0.584
m1 = 4.4	0.587
m1 = 4.6	0.59
m1 = 4.8	0.593
m1 = 4.803	0.593

[Cl-].[Na+] [sodium chloride] + O
Details	mean ionic activity coefficient
m1 = 0.2	0.734
m1 = 0.4	0.694
m1 = 0.6	0.676
m1 = 0.8	0.666
m1 = 1	0.662
m1 = 1.2	0.66
m1 = 1.4	0.662
m1 = 1.6	0.665
m1 = 1.8	0.669
m1 = 2	0.675
m1 = 2.2	0.682
m1 = 2.4	0.69
m1 = 2.6	0.699
m1 = 2.8	0.709
m1 = 3	0.72
m1 = 3.2	0.732
m1 = 3.4	0.744
m1 = 3.6	0.758
m1 = 3.8	0.772
m1 = 4	0.787
m1 = 4.2	0.803
m1 = 4.4	0.82
m1 = 4.6	0.838
m1 = 4.8	0.857
m1 = 5	0.877
m1 = 5.2	0.898
m1 = 5.4	0.92
m1 = 5.6	0.943
m1 = 5.8	0.968
m1 = 6	0.993
m1 = 6.144	1.01
